Patent US20230094076A1, “COMBINATION THERAPY” (GlaxoSmithKline Intellectual Property Development Limited, priority 2016, published 2023)
Like-named read-outs stand apart in the source and are kept apart here.

Tests used:
PRMT6 = PRMT6 (Homo sapiens, UniProt Q96LA8); assay: PRMT family radioactive assay; type: biochemical
PRMT3 = PRMT3 (Homo sapiens, UniProt O60678); assay: PRMT family radioactive assay; type: biochemical
[1] = tested on: arginine methylation (ADMA, MMA, SDMA) in Toledo cells; assay: Western analysis of arginine methylation, time course; type: cell-based, human; conditions: 0.4 μM
Protocol: (B) Representative western blots of arginine methylation marks. Regions quantified are denoted by black bars on the right of the gel.
As predicted, ADMA methylation decreased while MMA increased upon compound exposure (FIG. 12). […] Given the detection of numerous substrates with varying kinetics, and variability of ADMA levels among DMSO-treated samples, both the full lane and a prominent 45 kDa band were characterized to assess ADMA. Increases in MMA were apparent by 24 hours and near maximal by 48 hours while decreases in the 45 kDa ADMA band required 72-96 hours to achieve maximal effect. Increases in SDMA were apparent after 48 hours of compound exposure and continued to increase through 120 hours, consistent with the potential switch from conversion of MMA to ADMA by Type I PRMTs to SDMA by Type II PRMTs (FIG. 12).

ccRCC cell lines = conditions: only at highest concentration
[2] = tested on: arginine methylation (ADMA, MMA, SDMA) in Toledo cells; assay: Durability of arginine methylation changes after compound washout (western); type: cell-based, human; conditions: 0.4 μM for 72 hours, then washout
Protocol: (A) Stability of changes to ADMA. […] (B) Representative western blots of arginine methylation marks. Regions quantified for (A) are denoted by black bars on the side of the gel.
Cells were then washed, cultured in Compound A-free media, samples were collected daily through 120 hours, and arginine methylation levels were examined by western analysis. […] SDMA appeared to continue to increase even after 6 hours of washout. This is consistent with the continued increase observed through 120 hours without any obvious plateau (FIG. 12) coupled with the durable increase in MMA that has not yet returned to baseline after washout. Durability of each modification generally reflected the kinetics of arginine methylation changes brought about by Compound A, with MMA being the most rapid.

PRMT9 = PRMT9 (Homo sapiens, UniProt Q6P2P2); assay: PRMT family radioactive assay; type: biochemical; conditions: 60 minute SAM:Enzyme:Compound A preincubation
PRMT4 = PRMT4 (Homo sapiens, UniProt Q86X55); assay: PRMT family radioactive assay; type: biochemical
[3] = tested on: human renal cell carcinoma xenografts (ACHN); conditions: for Body weight Difference (vs. vehicle) / Regression: ACHN (ccRCC)
OCI-Ly1 = tested on: OCI-Ly1
Text: (§1) FIG. 18: Propidium iodide FACS analysis of cell cycle in human lymphoma cell lines. […] Data represents the average±SEM of biological replicates, n=2.

Toledo = tested on: Toledo
Text: as §1

U2932 = tested on: U2932
Text: as §1

MOLM-16 = conditions: MOLM-16, AML subtype M0, 6-day
Protocol: (§2) The growth of all cell lines was evaluated over time across a wide range of seeding densities to identify conditions that permitted proliferation throughout the entire 6-day assay. Cells were plated at the optimal seeding density and after overnight incubation, a 20-point 2-fold titration of compound was added and plates were incubated for 6 days. A replicate plate of cells was harvested at the time of compound addition to quantify the starting number of cells (T0). Values obtained after the 6 day treatment were expressed as a function of the T0 value and plotted against compound concentration. The T0 value was normalized to 100% and represents the number of cells at the time of compound addition. The data were fit with a 4 parameter equation to generate a concentration response curve and the growth IC50 (gIC50) was determined. The gIC50 is the midpoint of the ‘growth window’, the difference between the number of cells at the time of compound addition (To) and the number of cells after 6 days (DMSO control). The growth-death assay can be used to quantify the net population change, clearly defining cell death (cytotoxicity) as fewer cells compared to the number at the time of compound addition (T0).

MV-4-11 = conditions: MV-4-11, AML subtype M5, 6-day
Protocol: as §2

NSCLC cell lines = conditions: percent of cell lines, 25 cell lines
Protocol: as §2

SK-NEP-1 = conditions: SK-NEP-1, Wilm's, 6-day
Protocol: as §2

CAKI-1 = conditions: CAKI-1, ccRCC, 6-day
Protocol: as §2

HL-60 = conditions: HL-60, AML subtype M3, 6-day
Protocol: as §2

OCI- = conditions: AML subtype M4, 6-day
Protocol: as §2

[4] = tested on: Toledo (human DLBCL) xenograft; conditions: for Body weight Difference (vs. vehicle): Toledo (DLBCL), Day 25
[5] = 60 minute SAM:Enzyme:Compound A preincubation
[6] = 600 QD mg/kg oral, arm terminated at day 31

Sequence of PRMT4 (Q86X55 whole entry): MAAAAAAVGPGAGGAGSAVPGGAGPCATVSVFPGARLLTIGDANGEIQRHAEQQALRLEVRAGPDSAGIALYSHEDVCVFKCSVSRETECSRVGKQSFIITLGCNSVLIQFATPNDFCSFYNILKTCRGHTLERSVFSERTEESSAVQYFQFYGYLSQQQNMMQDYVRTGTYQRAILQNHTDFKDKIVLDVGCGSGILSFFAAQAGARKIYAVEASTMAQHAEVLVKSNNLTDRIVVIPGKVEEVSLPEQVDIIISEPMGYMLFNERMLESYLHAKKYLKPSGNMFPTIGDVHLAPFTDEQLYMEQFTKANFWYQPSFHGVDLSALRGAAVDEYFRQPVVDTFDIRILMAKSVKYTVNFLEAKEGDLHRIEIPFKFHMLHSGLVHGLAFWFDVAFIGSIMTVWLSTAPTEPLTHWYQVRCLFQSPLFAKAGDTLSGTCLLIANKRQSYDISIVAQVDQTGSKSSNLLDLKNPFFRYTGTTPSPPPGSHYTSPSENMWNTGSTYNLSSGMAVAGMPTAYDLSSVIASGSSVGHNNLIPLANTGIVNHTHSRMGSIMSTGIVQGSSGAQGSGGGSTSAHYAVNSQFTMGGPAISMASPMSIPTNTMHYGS
Sequence of PRMT6 (Q96LA8 whole entry): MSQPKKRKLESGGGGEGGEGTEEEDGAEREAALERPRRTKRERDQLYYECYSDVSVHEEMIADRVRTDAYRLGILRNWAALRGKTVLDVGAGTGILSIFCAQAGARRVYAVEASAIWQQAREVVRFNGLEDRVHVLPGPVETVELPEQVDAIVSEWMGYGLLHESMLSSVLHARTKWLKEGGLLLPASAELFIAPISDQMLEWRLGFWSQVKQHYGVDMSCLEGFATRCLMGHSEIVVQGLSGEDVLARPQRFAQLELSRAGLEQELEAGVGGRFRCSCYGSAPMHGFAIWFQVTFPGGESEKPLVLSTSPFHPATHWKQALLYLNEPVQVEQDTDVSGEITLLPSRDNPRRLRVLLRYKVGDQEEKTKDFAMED
Sequence of PRMT3 (O60678 whole entry): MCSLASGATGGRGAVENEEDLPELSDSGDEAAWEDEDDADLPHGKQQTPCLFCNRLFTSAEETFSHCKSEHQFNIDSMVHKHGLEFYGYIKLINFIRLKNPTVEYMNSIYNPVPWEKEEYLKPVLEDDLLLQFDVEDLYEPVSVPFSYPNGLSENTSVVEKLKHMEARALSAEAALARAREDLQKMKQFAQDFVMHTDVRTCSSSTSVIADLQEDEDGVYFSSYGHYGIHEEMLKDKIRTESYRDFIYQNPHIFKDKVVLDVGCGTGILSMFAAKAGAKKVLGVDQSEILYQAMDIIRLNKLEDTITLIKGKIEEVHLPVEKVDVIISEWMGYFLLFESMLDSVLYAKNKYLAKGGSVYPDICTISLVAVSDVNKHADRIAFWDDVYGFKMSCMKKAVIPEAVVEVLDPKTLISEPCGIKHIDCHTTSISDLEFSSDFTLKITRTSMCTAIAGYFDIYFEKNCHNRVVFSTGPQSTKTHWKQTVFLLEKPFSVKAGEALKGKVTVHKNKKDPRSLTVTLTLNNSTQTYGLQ
Sequence of PRMT9 (Q6P2P2 whole entry): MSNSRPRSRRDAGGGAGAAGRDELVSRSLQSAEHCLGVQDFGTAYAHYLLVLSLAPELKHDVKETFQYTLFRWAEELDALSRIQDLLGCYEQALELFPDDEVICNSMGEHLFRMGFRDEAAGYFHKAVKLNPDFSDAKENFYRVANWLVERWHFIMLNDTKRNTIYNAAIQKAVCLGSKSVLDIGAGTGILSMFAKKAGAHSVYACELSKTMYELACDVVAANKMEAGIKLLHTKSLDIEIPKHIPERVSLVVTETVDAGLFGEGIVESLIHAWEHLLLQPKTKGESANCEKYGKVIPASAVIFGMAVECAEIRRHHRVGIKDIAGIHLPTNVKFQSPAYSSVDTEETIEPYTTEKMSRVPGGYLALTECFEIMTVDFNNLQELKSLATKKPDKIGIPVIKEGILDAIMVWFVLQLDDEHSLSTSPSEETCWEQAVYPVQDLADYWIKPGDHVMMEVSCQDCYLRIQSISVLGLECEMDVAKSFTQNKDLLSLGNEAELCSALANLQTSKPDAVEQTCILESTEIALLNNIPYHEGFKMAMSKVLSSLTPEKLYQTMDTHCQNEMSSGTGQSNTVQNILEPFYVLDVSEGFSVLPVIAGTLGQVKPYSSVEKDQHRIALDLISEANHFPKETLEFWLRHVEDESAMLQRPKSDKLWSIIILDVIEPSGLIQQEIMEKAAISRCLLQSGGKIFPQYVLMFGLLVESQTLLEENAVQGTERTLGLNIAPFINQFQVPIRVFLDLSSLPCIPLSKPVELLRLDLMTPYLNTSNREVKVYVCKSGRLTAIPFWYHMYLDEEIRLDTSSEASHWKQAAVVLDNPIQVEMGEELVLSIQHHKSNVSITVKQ

CCOCC1(COCC)CCC(c2n[nH]cc2CN(C)CCNC)CC1 [Compound A]
inhibition of activity (PRMT6; [5]): inhibited the activity | time dependence of inhibition (PRMT6; increasing preincubation times): time dependent inhibitor | inhibition of activity (PRMT3; [5]): inhibited the activity | time dependence of inhibition (PRMT3; increasing preincubation times): no time dependent behavior | time to maximal decrease of 45 kDa ADMA band [1]: 72 to 96 h | time to near maximal increase in MMA [1]: ≤ 48 h | change in ADMA methylation ([1]; up to 120 hours): decreased | change in MMA ([1]; up to 120 hours): increased | change in SDMA ([1]; up to 120 hours): increase | concentration at which caspase cleavage occurred (ccRCC cell lines): 30 µM | time for ADMA to return to baseline after washout [2]: ≤ 24 h | time for MMA to return to baseline after washout [2]: ≤ 24 h | time for SDMA to return to baseline after washout [2]: ≤ 96 h | inhibition of activity (PRMT9): failed to inhibit | inhibition of activity (PRMT4; [5]): inhibited the activity | time dependence of inhibition (PRMT4; increasing preincubation times): time dependent inhibitor | body weight loss ([3]; 600 mg/kg daily): Significant body weight loss | Body weight Difference (vs. vehicle) ([3]; 150 QD mg/kg oral, Day 59): −3% | Body weight Difference (vs. vehicle) ([3]; 300 QD mg/kg oral, Day 59): −4% | Regression ([3]; 300 QD mg/kg oral, Day 59): 2% | Body weight Difference (vs. vehicle) ([3]; 450 QD mg/kg oral, Day 59): −7% | Regression ([3]; 450 QD mg/kg oral, Day 59): 15% | Body weight Difference (vs. vehicle) [3, 6]: −17% | Regression [3, 6]: 6% | doses at which regressions were observed ([3]; ACHN xenograft, oral daily): ≥ 300 mg/kg | concentration giving accumulation of cells in sub-G1 (OCI-Ly1): 10 µM | concentration giving accumulation of cells in sub-G1 (Toledo; after 3 days): ≥ 1000 nM | concentration giving increase in sub-G1 population (Toledo; by day 7): ≥ 100 nM | concentration giving accumulation of cells in sub-G1 (U2932): 10 µM | gIC100 (MOLM-16): 9.69 ± 10.58 µM | Ymin − T0 (MOLM-16; negative = cell death): −68.6 | gIC100 (MV-4-11): 14.55 ± 4.27 µM | Ymin − T0 (MV-4-11; negative = cell death): 565.6 | % Cytotoxic (NSCLC cell lines): 16% | % gIC100 < 2 (NSCLC cell lines): 0% | Ymin − T0 (SK-NEP-1): 25.3 | Ymin − T0 (CAKI-1): 178.7 | gIC100 (HL-60): 6.38 ± 12.83 µM | Ymin − T0 (HL-60; negative = cell death): −33.4 | gIC100 (OCI-): 29.33 ± 0.00 µM | Ymin − T0 (OCI-; negative = cell death): 523.2 | Body weight Difference (vs. vehicle) ([4]; 37.5 QD mg/kg oral): −5% | Body weight Difference (vs. vehicle) ([4]; 75 BID mg/kg oral): −4% | Body weight Difference (vs. vehicle) ([4]; 75 QD mg/kg oral): −5% | Body weight Difference (vs. vehicle) ([4]; 150 QD mg/kg oral): −7% | body weight loss ([4]; any dose group, 37.5-150 mg/kg QD or 75 mg/kg BID): No significant body weight loss
